Assay [1] has as its target T1, ACLY (Homo sapiens (Human), UniProt P53396). The assay is described as follows: InCell Pulse assay (permeate HEK293 cells, bind to and stabilize ACLY). Conditions: HEK293 cells transfected with pICP-ACLY(FL)-ePL; 1 hour at 37° C., 55° C. heat pulse 10 minutes; read-out: InCell Pulse IC50 GMean. It is filed as cell-based. How it is done: HEK293 cells transfected for 24 hours with pICP-ACLY(FL)-ePL (3 μg DNA per T25 flask) using FuGene HD (Promega Corp.) were harvested and cryopreserved. On the day of the assay, the frozen transfected cells were thawed at 37° C., and the storage medium (DMEM with 2 mM L-Glutamine, 10% FBS and a final concentration of DMSO 10%) was exchanged with assay medium (OptiMEM; Gibco™, ThermoFischer Scientific). Compounds were 3-fold serially diluted in DMSO over 11-point concentration range. 100 nL of the corresponding dilutions were spotted into the assay plate (Greiner AG; 384 Well, PP, Small Volume, Deep Well, Natural, cat. no. 784201) followed by the addition of 20 μL of cell suspension adjusted with assay medium to 7.5E4 cells/mL. Subsequently, the plates were sealed and incubated for 1 hour at 37° C. Afterwards, the plates were fixed upside down in a rack and incubated in a 55° C. water bath for 10 minutes. Following this heat pulse step, plates were allowed to reach room temperature for 10 minutes and centrifuged for a few seconds at 1000 rpm and room temperature. 25 μL EA detection solution (working solution: 0.0167× InCell EA Reagent, 0.15× InCell Dilution Buffer, 0.167× InCell Lysis Buffer; 0.667× InCell Substrate Reagent; InCell Hunter Detection kit; Eurofins DiscoverX; cat. no. 96-0079) were added to each well. Afterwards, 42 μL were transferred from the assay plate to the detection plate (Corning Inc., 384-well Low Flange Black Flat Bottom Polystyrene NBS Microplate, cat. no. 3575), followed by an incubation for 1 hour at room temperature, a centrifugation step for 1 minute at 1000 rpm and the detection of the luminescence signal using an EnVision microplate reader (Perkin Elmer Inc.). Concentration-response curve-fitting and IC50 determination was performed using Evotec's in-house evaluation software APlus with a four-parameter non-linear regression fit model. Data was normalized to 0.5% (final concentration) DMSO as low/negative control and 1 μM (final concentration) NDI-094311 as high/positive control.

Assay [2] has as its target T1, ACLY. The assay can be described thus: Human ACLY (hACLY) RF/MS activity assay. The class given is biochemical. Conditions: 1 nM hACLY; 30 min pre-incubation; 15 μM Coenzyme A, 50 μM ATP, 50 μM citrate; CoA to Acetyl-CoA by RF/MS; read-out: RFMS IC50 GMean. How it is done: Compounds of the disclosure were evaluated for their efficacy in inhibiting hACLY using rapid fire mass spectrometry (RF/MS).
The final reaction volume for each compound was 20 μl and consisted of buffer (50 mM Hepes pH 8.0, 10 mM MgCl2, 0.003% BSA, 0.01% Brij35, 50 mM NaCl, 4 mM DTT) and 1 nM hACLY, EV12992, PP6692) using Greiner, 384 well small volume, deep well plates (Cat #784201). A two-fold dilution series with a top concentration of 10 μM was used to record a concentration response curve. Both the substrate (CoA) and product (Acetyl-CoA) were quantified, and given a ratio. […] The final DMSO-concentration was 1% (v/v). Compounds were pre-incubated for 30 min with the buffered enzyme solution at RT (20° C.), and substrate solution was added (final concentrations: 15 μM Coenzyme A, 50 μM ATP and 50 μM citrate) to initiate the enzyme reaction. The enzyme reaction was incubated for additional 30 min at RT. The reaction was quenched upon addition of 40 μl of 5% Formic acid in H2O and centrifuged (4350 rpm at 20° C. for 10 min).
Product formation was quantified using a RF/MS-based method based on mass change of CoA (substrate) to Acetyl-CoA (product).

Some results are limits rather than exact numbers.

T1 sequence (P53396 whole entry): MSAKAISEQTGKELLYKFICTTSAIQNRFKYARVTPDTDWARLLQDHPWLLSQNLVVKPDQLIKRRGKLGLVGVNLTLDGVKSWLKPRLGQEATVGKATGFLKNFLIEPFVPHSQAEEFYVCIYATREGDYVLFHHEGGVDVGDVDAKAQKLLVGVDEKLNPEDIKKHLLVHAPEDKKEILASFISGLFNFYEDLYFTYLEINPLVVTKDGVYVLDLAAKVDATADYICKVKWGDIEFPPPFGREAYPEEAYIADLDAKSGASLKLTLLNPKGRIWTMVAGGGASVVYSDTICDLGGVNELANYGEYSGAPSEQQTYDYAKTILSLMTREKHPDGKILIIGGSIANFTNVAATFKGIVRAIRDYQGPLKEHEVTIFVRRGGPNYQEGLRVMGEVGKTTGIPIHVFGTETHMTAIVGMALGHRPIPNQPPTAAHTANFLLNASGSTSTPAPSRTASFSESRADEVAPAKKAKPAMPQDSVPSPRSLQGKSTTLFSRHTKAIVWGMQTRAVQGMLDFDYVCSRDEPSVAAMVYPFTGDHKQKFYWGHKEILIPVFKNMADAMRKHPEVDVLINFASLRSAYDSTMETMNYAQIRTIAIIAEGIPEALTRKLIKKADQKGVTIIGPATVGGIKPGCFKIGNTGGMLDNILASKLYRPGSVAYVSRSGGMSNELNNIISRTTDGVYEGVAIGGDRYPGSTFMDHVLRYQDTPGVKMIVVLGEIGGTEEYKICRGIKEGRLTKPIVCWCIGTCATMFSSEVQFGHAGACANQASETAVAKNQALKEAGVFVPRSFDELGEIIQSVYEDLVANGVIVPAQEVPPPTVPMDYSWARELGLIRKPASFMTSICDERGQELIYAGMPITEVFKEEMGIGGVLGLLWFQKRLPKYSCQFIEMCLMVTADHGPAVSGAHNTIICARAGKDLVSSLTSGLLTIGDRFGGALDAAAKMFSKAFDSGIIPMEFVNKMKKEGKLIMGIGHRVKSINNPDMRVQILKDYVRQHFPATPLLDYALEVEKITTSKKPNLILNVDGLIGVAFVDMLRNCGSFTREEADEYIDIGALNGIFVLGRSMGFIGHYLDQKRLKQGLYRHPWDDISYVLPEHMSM

Usually IC50 stands for the point on the concentration scale where inhibition reaches its midpoint. On to `O=C1NCCc2ccccc2-c2cc(c(F)cc2F)NS(=O)(=O)c2cc1cc(Cl)c2O` [Compound 30, 14-chloro-20,22-difluoro-15-hydroxy-17lambda6-thia-10,18-diazatetracyclo[17.3.1.1^12,16.0^2,7]tetracosa-1(23),2,4,6,12,14,16(24),19,21-nonaene-11,17,17-trione], for which the 50% inhibitory concentration (IC50) on ACLY [1] lay within 1000 to 50000 nM; on ACLY [2], 20 to 100 nM.

For `O=C1OCCOc2ccc(C3CC3)cc2-c2cc(c(F)cc2F)NS(=O)(=O)c2cc1cc(Cl)c2O` [Compound 31, 15-chloro-4-cyclopropyl-21,23-difluoro-16-hydroxy-8,11-dioxa-18lambda6-thia-19-azatetracyclo[18.3.1.1^13,17.0^2,7]pentacosa-1(23),2,4,6,13(25),14,16,20(24),21-nonaene-12,18,18-trione], the results for the IC50 on ACLY [1] and on ACLY [2] were 1000 to 50000 nM and 100 to 10000 nM, respectively.

In the case of `O=C1OCCOc2ncccc2-c2cc(c(F)cc2F)NS(=O)(=O)c2cc1cc(Cl)c2O` [Compound 32, 15-chloro-21,23-difluoro-16-hydroxy-8,11-dioxa-18lambda6-thia-6,19-diazatetracyclo[18.3.1.1^13,17.0^2,7]pentacosa-1(24),2,4,6,13,15,17(25),20,22-nonaene-12,18,18-trione], the half-maximal inhibitory concentration (IC50) on ACLY [1] was < 300 nM; at ACLY [2] it was < 20 nM.

In the case of `O=C1c2cc(Cl)c(O)c(c2)S(=O)(=O)Nc2cc(c(F)cc2F)-c2ccccc2OCC2CN1C2` [Compound 33, 16-chloro-22,24-difluoro-17-hydroxy-19,19-dioxo-8-oxa-19λ6-thia-12,20-diazapentacyclo[19.3.1.110,12.114,18.02,7]heptacosa-1(25),2,4,6,14,16,18(26),21,23-nonaen-13-one], the IC50 on ACLY [1] lay within 300 to 1000 nM; at ACLY [2], 20 to 100 nM.

`O=C1OCc2cccc(c2)Oc2cc(c(F)cc2F)NS(=O)(=O)c2cc1cc(Cl)c2O` [Compound 34, 12-chloro-4,6-difluoro-11-hydroxy-9,9-dioxo-2,16-dioxa-9λ6-thia-8-azatetracyclo[16.3.1.13,7.110,14]tetracosa-1(22),3,5,7(24),10(23),11,13,18,20-nonaen-15-one]: the concentration for half-maximal inhibition (IC50) is ≥ 50000 nM on ACLY [1] and 100 to 10000 nM on ACLY [2].

Regarding `Cn1cc2cc(c1=O)S(=O)(=O)Nc1cc(c(F)cc1F)-c1ccccc1OCCOC2=O` [Compound 35, 21,23-difluoro-15-methyl-18,18-dioxo-8,11-dioxa-18λ6-thia-15,19-diazatetracyclo[18.3.1.113,17.02,7]pentacosa-1(23),2(7),3,5,13,17(25),20(24),21-octaene-12,16-dione], the IC50 is ≥ 50000 nM on ACLY [1] and ≥ 10000 nM at ACLY [2].

On to `O=C1OCCOc2ccccc2-c2cc(c(F)cc2F)NS(=O)(=O)c2cc1c[nH]c2=O` [Compound 36, 21,23-difluoro-18,18-dioxo-8,11-dioxa-18λ6-thia-15,19-diazatetracyclo[18.3.1.113,17.02,7]pentacosa-1(23),2(7),3,5,13,17(25),20(24),21-octaene-12,16-dione], for which the IC50 was ≥ 50000 nM on ACLY [1] and 20 to 100 nM on ACLY [2].

For `O=C1OCCOc2ccc(F)cc2-c2ccc(F)c(c2)NS(=O)(=O)c2cc1c[nH]c2=O` [Compound 37, 4,21-difluoro-18,18-dioxo-8,11-dioxa-18λ6-thia-15,19-diazatetracyclo[18.3.1.113,17.02,7]pentacosa-1(23),2(7),3,5,13,17(25),20(24),21-octaene-12,16-dione], the 50% inhibitory concentration (IC50) is ≥ 50000 nM on ACLY [1] and 100 to 10000 nM at ACLY [2].

In the case of `O=C1OCCOc2ccccc2-c2cc(c(F)cc2F)NS(=O)(=O)c2cc1cc(=O)[nH]2` [Compound 38, 21,23-difluoro-18,18-dioxo-8,11-dioxa-18λ6-thia-16,19-diazatetracyclo[18.3.1.113,17.02,7]pentacosa-1(23),2(7),3,5,13,17(25),20(24),21-octaene-12,15-dione], the IC50 on ACLY [1] was ≥ 50000 nM; on ACLY [2], 20 to 100 nM.

In the case of `O=C1OCC2Cc3cccc(c3O2)-c2cc(c(F)cc2F)NS(=O)(=O)c2cc1cc(Cl)c2O` (stereo not shown) [Compound 39, 15-chloro-21,23-difluoro-16-hydroxy-18,18-dioxo-8,11-dioxa-18λ6-thia-19-azapentacyclo[18.3.1.16,9.113,17.02,7]hexacosa-1(23),2(7),3,5,13,15,17(25),20(24),21-nonaen-12-one], the IC50 is < 300 nM on ACLY [1] and < 20 nM at ACLY [2].

Take `O=C1OCCCc2ccccc2-c2ccc(F)c(c2)NS(=O)(=O)c2cc1cc(Cl)c2O` [Compound 42, 15-chloro-21-fluoro-16-hydroxy-18,18-dioxo-11-oxa-18λ6-thia-19-azatetracyclo[18.3.1.113,17.02,7]pentacosa-1(23),2(7),3,5,13,15,17(25),20(24),21-nonaen-12-one]: the IC50 is < 300 nM at ACLY [1] and 20 to 100 nM at ACLY [2].

Regarding `CC1CCOC(=O)c2cc(Cl)c(O)c(c2)S(=O)(=O)Nc2cc(c(F)cc2F)-c2ccccc21` (stereo not shown) [Compound 43, 15-chloro-21,23-difluoro-16-hydroxy-8-methyl-18,18-dioxo-11-oxa-18λ6-thia-19-azatetracyclo[18.3.1.113,17.02,7]pentacosa-1(23),2(7),3,5,13,15,17(25),20(24),21-nonaen-12-one], the figures for the IC50 at ACLY [1] and at ACLY [2] were 300 to 1000 nM and 20 to 100 nM, respectively.

`O=C1OCCOc2ccc(F)cc2-c2ccc(F)c(c2)NS(=O)(=O)c2cc1cc(Cl)c2O` [Compound 46, 15-chloro-4,21-difluoro-16-hydroxy-18,18-dioxo-8,11-dioxa-18λ6-thia-19-azatetracyclo[18.3.1.113,17.02,7]pentacosa-1(23),2(7),3,5,13,15,17(25),20(24),21-nonaen-12-one]: the results for the IC50 on ACLY [1] and on ACLY [2] were < 300 nM and < 20 nM, respectively.

In the case of `COc1cc(F)c2cc1-c1ccccc1OCCOC(=O)c1cc(Cl)c(O)c(c1)S(=O)(=O)N2` [Compound 47, 15-chloro-21-fluoro-16-hydroxy-23-methoxy-18,18-dioxo-8,11-dioxa-18λ6-thia-19-azatetracyclo[18.3.1.113,17.02,7]pentacosa-1(23),2(7),3,5,13(25),14,16,20(24),21-nonaen-12-one], the results for the half-inhibitory concentration (IC50) at ACLY [1] and on ACLY [2] were < 300 nM and 20 to 100 nM, respectively.

As for `O=C1OCCOc2cc(F)ccc2-c2ccc(F)c(c2)NS(=O)(=O)c2cc1cc(Cl)c2O` [Compound 48, 15-chloro-5,21-difluoro-16-hydroxy-18,18-dioxo-8,11-dioxa-18λ6-thia-19-azatetracyclo[18.3.1.113,17.02,7]pentacosa-1(23),2(7),3,5,13(25),14,16,20(24),21-nonaen-12-one], the 50% inhibitory concentration (IC50) at ACLY [1] was < 300 nM; on ACLY [2], < 20 nM.

In the case of `Cc1cccc2c1-c1cc(c(F)cc1F)NS(=O)(=O)c1cc(cc(Cl)c1O)C(=O)OCCO2` [Compound 49, 15-chloro-21,23-difluoro-16-hydroxy-3-methyl-18,18-dioxo-8,11-dioxa-18λ6-thia-19-azatetracyclo[18.3.1.113,17.02,7]pentacosa-1(23),2(7),3,5,13(25),14,16,20(24),21-nonaen-12-one], the results for the half-maximal inhibitory concentration (IC50) on ACLY [1] and on ACLY [2] were ≥ 50000 nM and ≥ 10000 nM, respectively.

`Cc1cc(F)c2cc1-c1ccccc1OCCOC(=O)c1cc(Cl)c(O)c(c1)S(=O)(=O)N2` [Compound 50, 15-chloro-21-fluoro-16-hydroxy-23-methyl-18,18-dioxo-8,11-dioxa-18λ6-thia-19-azatetracyclo[18.3.1.113,17.02,7]pentacosa-1(23),2(7),3,5,13(25),14,16,20(24),21-nonaen-12-one]: the IC50 at ACLY [1] was < 300 nM; on ACLY [2] it was < 20 nM.
